Assay results taken from patent US8124624B2, “Substituted sulfonamide compounds” (Gruenenthal GmbH, priority 2008, dated 2012).
Where a name gives a salt, the structure may show the parent alone.

Experiments:
[1] = biological target: T1, B1R of the rat (Rattus norvegicus, UniProt P97583); experiment: FLIPR Ca2+ influx assay, B1R antagonism, rat (rB1R CHO K1 cells); type: cell-based; conditions: test substance 10 μM, CHO K1 cells stably transfected with rat B1R, agonist Des-Arg9-bradykinin at EC80, % inhibition compared with maximum achievable inhibition; for inhibition at 10 µM: read-out: B1R antagonism, rat [10 μM] % inhibition
T1 construct: expressed in transfected cells; host or cells: CHO K1 cells (rB1R cells)
T1 sequence (P97583 1-337): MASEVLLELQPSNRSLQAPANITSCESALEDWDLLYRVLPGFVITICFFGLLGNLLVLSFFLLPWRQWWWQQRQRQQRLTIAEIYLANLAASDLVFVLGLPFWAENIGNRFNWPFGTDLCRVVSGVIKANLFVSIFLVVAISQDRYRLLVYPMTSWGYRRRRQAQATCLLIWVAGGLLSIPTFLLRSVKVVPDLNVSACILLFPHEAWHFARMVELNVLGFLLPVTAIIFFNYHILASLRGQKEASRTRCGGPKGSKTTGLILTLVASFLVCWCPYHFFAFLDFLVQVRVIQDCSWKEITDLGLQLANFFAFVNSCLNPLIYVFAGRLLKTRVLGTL
Method in brief: (§1)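 CHO K1 cells stably expressing human or rat B1R were loaded with Fluo-4, and Ca^2+ fluorescence was read on a FLIPR. After 10–20 min with test substance, agonist was added at EC80: Lys-Des-Arg^9-bradykinin for hB1R, Des-Arg^9-bradykinin for rB1R. % inhibition is relative to maximal inhibition; IC50 from multiple concentrations, n=2–3, N≥2.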

[2] = biological target: T2, human B1R (Homo sapiens, UniProt P46663); experiment: FLIPR Ca2+ influx assay, B1R antagonism, human (hB1R CHO K1 cells); type: cell-based; conditions: test substance 10 μM; CHO K1 cells stably transfected with human B1R; agonist Lys-Des-Arg9-bradykinin at EC80; % inhibition compared with maximum achievable inhibition; read-out: B1R antagonism, human [10 μM] % inhibition
T2 construct: expressed in transfected cells; host or cells: CHO K1 cells (hB1R cells)
T2 sequence (P46663 1-353): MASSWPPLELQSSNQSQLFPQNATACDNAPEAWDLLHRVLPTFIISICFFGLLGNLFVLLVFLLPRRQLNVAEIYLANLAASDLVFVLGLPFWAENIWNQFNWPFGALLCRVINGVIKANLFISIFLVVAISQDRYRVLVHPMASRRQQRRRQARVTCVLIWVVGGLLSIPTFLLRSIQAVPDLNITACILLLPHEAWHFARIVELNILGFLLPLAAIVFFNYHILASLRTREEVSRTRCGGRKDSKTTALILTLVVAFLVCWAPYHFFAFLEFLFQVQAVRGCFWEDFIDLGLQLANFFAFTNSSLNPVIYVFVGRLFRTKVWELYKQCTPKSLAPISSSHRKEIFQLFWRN
Method in brief: as §1

| inhibition at 10 µM [1] | inhibition at 10 µM [2] | B1R antagonism, rat [10 μM] % inhibition [1] | SMILES |
| --- | --- | --- | --- |
| 103% | 100% |  | COc1cc(C)c(S(=O)(=O)N(CCOCC(=O)N2CCC(CCCN3CCCC3)(c3cccnc3)CC2)Cc2cnc3ccccc3c2)c(C)c1 [Example 71, 4-Methoxy-2,6-Dimethyl-N-[2-[2-oxo-2-[4-pyridin-3-yl-4-(3-pyrrolidin-1-yl-propyl)-piperidin-1-yl]-ethoxy]-ethyl]-N-(quinolin-3-yl-methyl)-benzenesulfonic acid amide] |
| 103% | 100% |  | Cc1cccc(Cl)c1S(=O)(=O)N1c2ccccc2OCC1COCC(=O)N1CCC(CCCN2CCCC2)(c2cccnc2)CC1 (stereo not shown) [Example 72, 2-[[4-[(2-Chloro-6-methyl-phenyl)sulfonyl]-3,4-dihydro-2H-[1,4]benzoxazin-3-yl]-methoxy]-1-[4-pyridin-3-yl-4-(3-pyrrolidin-1-yl-propyl)-piperidin-1-yl]-ethanone] |
|  | 100% | 93% | O=C(COCC1COc2ccccc2N1S(=O)(=O)c1ccccc1C(F)(F)F)N1CCC(CCCN2CCCC2)(c2cccnc2)CC1 (stereo not shown) [Example 74, 1-[4-Pyridin-3-yl-4-(3-pyrrolidin-1-yl-propyl)-piperidin-1-yl]-2-[[4-[[2-(trifluoromethyl)-phenyl]sulfonyl]-3,4-dihydro-2H-[1,4]benzoxazin-3-yl]-methoxy]-ethanone] |
| 92% | 100% |  | Cc1cccc(Cl)c1S(=O)(=O)N(CCOCC(=O)N1CCC(CCCN2CCCC2)(c2cccc(Cl)c2)CC1)C1CC1 [Example 77, 2-Chloro-N-[2-[2-[4-(3-chlorophenyl)-4-(3-pyrrolidin-1-yl-propyl)-piperidin-1-yl]-2-oxo-ethoxy]-ethyl]-N-cyclopropyl-6-methyl-benzenesulfonic acid amide] |
| 92% | 97% |  | Cc1cccc(Cl)c1S(=O)(=O)N(CCOCC(=O)N1CCC(CCCN2CCCC2)(c2cccc(C(F)(F)F)c2)CC1)C1CC1 [Example 78, 2-Chloro-N-cyclopropyl-6-methyl-N-[2-[2-oxo-2-[4-(3-pyrrolidin-1-yl-propyl)-4-[3-(trifluoromethyl)phenyl]-piperidin-1-yl]-ethoxy]-ethyl]-benzenesulfonic acid amide] |
| 103% | 100% |  | Cc1cccc(Cl)c1S(=O)(=O)N(CCOCC(=O)N1CCC(CCCN2CCCC2)(c2cccc(F)c2)CC1)C1CC1 [Example 79, 2-Chloro-N-cyclopropyl-N-[2-[2-[4-(3-fluorophenyl)-4-(3-pyrrolidin-1-yl-propyl)-piperidin-1-yl]-2-oxo-ethoxy]-ethyl]-6-methyl-benzenesulfonic acid amide] |
| 104% | 100% |  | COc1cc(C)c(S(=O)(=O)N2CCCC[C@H]2COCC(=O)N2CCC(CCN3CCCC3)(c3cccnc3)CC2)c(C)c1 [Example 80, 2-[[(2S)-1-[(4-Methoxy-2,6-dimethyl-phenyl)sulfonyl]-piperidin-2-yl]-methoxy]-1-[4-pyridin-3-yl-4-(2-pyrrolidin-1-yl-ethyl)-piperidin-1-yl]-ethanone hydrochloride] |
| 102% | 100% |  | COc1cc(C)c(S(=O)(=O)N2CCCC[C@H]2COCC(=O)N2CCC(CCCN3CCCC3)(c3cccnc3)CC2)c(C)c1 [Example 81, 2-[[(2S)-1-[(4-Methoxy-2,6-dimethyl-phenyl)sulfonyl]-piperidin-2-yl]-methoxy]-1-[4-pyridin-3-yl-4-(3-pyrrolidin-1-yl-propyl)-piperidin-1-yl]-ethanone hydrochloride] |
